Data published in ChEMBL document CHEMBL2439969, “Replacement of Thr32 and Gln34 in the C-terminal neuropeptide Y fragment 25-36 by cis-cyclobutane and cis-cyclopentane β-amino acids shifts selectivity toward the Y(4) receptor” (J Med Chem, 2013).
Residues, ends and D or L forms follow the SMILES beside them.

What was measured:
[1] = molecular target: T1, Neuropeptide Y receptor type 4 (Homo sapiens, UniProt P50391); test: Partial agonist activity at human Y4 receptor expressed in sf9 cells assessed as hydrolysis of [gamma-33P]GTP after 2 mins by scintillation counting analysis relative to hPP
[2] = molecular target: T2, Neuropeptide Y receptor type 5 (Homo sapiens, UniProt Q15761); test: Displacement of Cy5-pNPY from human Y5 receptor expressed in human HEC-1B cells after 90 to 120 mins by flow cytometry; format: cell-based
T2 sequence (Q15761 whole entry): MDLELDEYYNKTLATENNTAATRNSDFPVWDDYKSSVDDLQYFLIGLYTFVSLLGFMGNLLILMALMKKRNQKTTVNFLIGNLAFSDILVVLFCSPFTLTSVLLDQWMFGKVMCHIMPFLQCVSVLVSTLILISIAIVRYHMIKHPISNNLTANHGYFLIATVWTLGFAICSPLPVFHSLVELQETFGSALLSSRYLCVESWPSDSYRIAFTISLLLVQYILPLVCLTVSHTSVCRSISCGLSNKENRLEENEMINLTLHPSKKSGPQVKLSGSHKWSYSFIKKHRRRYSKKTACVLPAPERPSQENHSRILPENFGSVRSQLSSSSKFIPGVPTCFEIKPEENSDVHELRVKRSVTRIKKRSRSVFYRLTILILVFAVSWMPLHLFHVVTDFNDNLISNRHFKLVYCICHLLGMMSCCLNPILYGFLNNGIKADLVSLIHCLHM

[3] = molecular target: T3, Neuropeptide Y receptor type 2 (Homo sapiens, UniProt P49146); test: Displacement of Cy5-pNPY from human Y2 receptor expressed in CHO cells after 90 to 120 mins by flow cytometry; format: cell-based
T3 sequence (P49146 whole entry): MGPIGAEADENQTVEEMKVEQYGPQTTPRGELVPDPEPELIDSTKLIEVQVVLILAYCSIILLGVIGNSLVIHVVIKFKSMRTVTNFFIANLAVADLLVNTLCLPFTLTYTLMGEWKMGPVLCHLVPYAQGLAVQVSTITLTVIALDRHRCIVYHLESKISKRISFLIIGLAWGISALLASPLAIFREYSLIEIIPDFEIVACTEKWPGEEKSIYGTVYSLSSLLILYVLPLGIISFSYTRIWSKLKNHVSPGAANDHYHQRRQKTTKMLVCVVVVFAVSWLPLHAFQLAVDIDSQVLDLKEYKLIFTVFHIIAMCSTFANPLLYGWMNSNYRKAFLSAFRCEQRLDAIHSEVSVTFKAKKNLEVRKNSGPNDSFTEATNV

[4] = molecular target: T4, Neuropeptide Y receptor type 1 (Homo sapiens, UniProt P25929); test: Displacement of Cy5-pNPY from human Y1 receptor expressed in HEL cells after 90 to 120 mins by flow cytometry; format: cell-based
T4 sequence (P25929 whole entry): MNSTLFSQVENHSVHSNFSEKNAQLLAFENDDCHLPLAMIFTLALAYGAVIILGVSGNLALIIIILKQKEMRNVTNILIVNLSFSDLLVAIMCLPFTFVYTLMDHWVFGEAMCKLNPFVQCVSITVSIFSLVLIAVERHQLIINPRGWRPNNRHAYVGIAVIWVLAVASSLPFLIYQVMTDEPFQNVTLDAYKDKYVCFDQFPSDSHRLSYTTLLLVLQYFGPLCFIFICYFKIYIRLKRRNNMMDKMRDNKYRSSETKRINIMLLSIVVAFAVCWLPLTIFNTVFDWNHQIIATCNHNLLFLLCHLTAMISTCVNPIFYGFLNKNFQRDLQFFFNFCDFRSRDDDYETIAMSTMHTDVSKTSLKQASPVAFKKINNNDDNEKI

[5] = molecular target: T1, Neuropeptide Y receptor type 4; test: Partial agonist activity at human Y4 receptor expressed in sf9 cells assessed as hydrolysis of [gamma-33P]GTP after 2 mins by scintillation counting analysis
[6] = molecular target: T1, Neuropeptide Y receptor type 4; test: Displacement of Cy5-[K4]hPP from human Y4 receptor expressed in CHO cells after 90 to 120 mins by flow cytometry; format: cell-based
[7] = Binding affinity to Y2 receptor (unknown origin); set-up: species or system Homo sapiens
[8] = molecular target: T2, Neuropeptide Y receptor type 5; test: Binding affinity to Y5 receptor (unknown origin)
[9] = molecular target: T4, Neuropeptide Y receptor type 1; test: Binding affinity to Y1 receptor (unknown origin)
[10] = molecular target: T3, Neuropeptide Y receptor type 2; test: Binding affinity to human Y2 receptor expressed in human SMS-KAN cells by radioligand binding assay; format: cell-based
[11] = Binding affinity to rabbit kidney Y2 receptor by radioligand binding assay; set-up: species or system Oryctolagus cuniculus
[12] = molecular target: T3, Neuropeptide Y receptor type 2; test: Binding affinity to Y2 receptor (unknown origin) expressed in human LN319 cells by radioligand binding assay; format: cell-based
[13] = molecular target: T1, Neuropeptide Y receptor type 4; test: Agonist activity at human Y4 receptor expressed in sf9 cells assessed as hydrolysis of [gamma-33P]GTP after 2 mins by scintillation counting analysis

T1 sequence (P50391 whole entry): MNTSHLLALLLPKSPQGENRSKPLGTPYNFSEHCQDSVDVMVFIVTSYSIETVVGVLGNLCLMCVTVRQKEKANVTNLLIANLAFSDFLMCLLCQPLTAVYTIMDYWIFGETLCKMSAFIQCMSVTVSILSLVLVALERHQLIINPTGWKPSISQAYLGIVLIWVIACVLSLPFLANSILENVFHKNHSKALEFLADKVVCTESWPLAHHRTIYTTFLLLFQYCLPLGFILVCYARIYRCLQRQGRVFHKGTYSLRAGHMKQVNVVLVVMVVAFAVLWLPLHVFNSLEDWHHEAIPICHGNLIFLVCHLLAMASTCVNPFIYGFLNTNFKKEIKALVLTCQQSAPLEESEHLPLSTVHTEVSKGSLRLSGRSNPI

Molecule: CC[C@H](C)[C@H](NC(=O)[C@H](Cc1ccc(O)cc1)NC(=O)[C@H](Cc1cnc[nH]1)NC(=O)[C@H](CCCNC(=N)N)NC(C)=O)C(=O)N[C@@H](CC(N)=O)C(=O)N[C@@H](CC(C)C)C(=O)N[C@H](C(=O)N[C@H](C(=O)N[C@@H](CCCNC(=N)N)C(=O)N[C@H]1CCC[C@H]1C(=O)N[C@@H](CCCNC(=N)N)C(=O)N[C@@H](Cc1ccc(O)cc1)C(N)=O)[C@@H](C)O)[C@@H](C)CC (HELM PEPTIDE1{[ac].R.H.Y.I.N.L.I.T.R.[O=C([C@@H]1CCC[C@@H]1N[*:1])[*:2]].R.Y.[am]}$$$$V2.0)
- Emax [1]: 71%

Molecule: CC[C@H](C)[C@H](NC(=O)[C@H](Cc1ccc(O)cc1)NC(=O)[C@H](Cc1cnc[nH]1)NC(=O)[C@H](CCCN=C(N)N)NC(C)=O)C(=O)N[C@@H](CC(N)=O)C(=O)N[C@@H](CC(C)C)C(=O)N[C@H](C(=O)N[C@H](C(=O)N[C@@H](CCCN=C(N)N)C(=O)N[C@H]1CCC[C@H]1C(=O)N[C@@H](CCCN=C(N)N)C(=O)N[C@@H](Cc1ccc(O)cc1)C(N)=O)[C@@H](C)O)[C@@H](C)CC (HELM PEPTIDE1{[ac].R.H.Y.I.N.L.I.T.R.[O=C([C@@H]1CCC[C@@H]1N[*:1])[*:2]].R.Y.[am]}$$$$V2.0)
- Ki [2]: > 500 nM
- Ki [3]: > 1000 nM
- Ki [4]: > 1000 nM
- EC50 [5]: 41 nM
- Ki [6]: 10 nM

Molecule: Ac-RHYINLIYRLRY-NH2
- IC50 [7]: 12 nM

Molecule: CC[C@H](C)[C@H](NC(=O)[C@H](Cc1ccc(O)cc1)NC(=O)[C@H](Cc1cnc[nH]1)NC(=O)[C@H](CCCNC(=N)N)NC(C)=O)C(=O)N[C@@H](CC(N)=O)C(=O)N[C@@H](CC(C)C)C(=O)N[C@H](C(=O)N[C@H](C(=O)N[C@@H](CCCNC(=N)N)C(=O)N[C@@H]1[C@H](C(=O)N[C@@H](CCCNC(=N)N)C(=O)N[C@@H](Cc2ccc(O)cc2)C(N)=O)[C@H]1C(=O)OC)[C@@H](C)O)[C@@H](C)CC (HELM PEPTIDE1{[ac].R.H.Y.I.N.L.I.T.R.[COC(=O)[C@H]1[C@H](N[*:1])[C@@H]1C(=O)[*:2]].R.Y.[am]}$$$$V2.0)
- Ki [8]: 118 nM
- Ki [9]: 29 nM

Molecule: CC[C@H](C)[C@H](NC(=O)[C@H](Cc1ccc(O)cc1)NC(=O)[C@H](Cc1cnc[nH]1)NC(=O)[C@H](CCCN=C(N)N)NC(C)=O)C(=O)N[C@@H](CC(N)=O)C(=O)N[C@@H](CC(C)C)C(=O)N[C@@H](CCCN=C(N)N)C(=O)N[C@@H]1[C@H](C(=O)N[C@@H](CCCN=C(N)N)C(=O)N[C@@H]2[C@H](C(=O)N[C@@H](CCCN=C(N)N)C(=O)N[C@@H](Cc3ccc(O)cc3)C(N)=O)[C@H]2C(=O)OC)[C@H]1C(=O)OC (HELM PEPTIDE1{[ac].R.H.Y.I.N.L.R.[COC(=O)[C@H]1[C@H](N[*:1])[C@@H]1C(=O)[*:2]].R.[COC(=O)[C@H]1[C@H](N[*:1])[C@@H]1C(=O)[*:2]].R.Y.[am]}$$$$V2.0)
- Ki [8]: 617 nM
- Ki [9]: 50 nM

Molecule: CCCC[C@H](NC(=O)[C@H](CC(N)=O)NC(=O)[C@@H](NC(=O)[C@H](Cc1ccc(O)cc1)NC(=O)[C@H](CCCNC(=N)N)NC(=O)[C@H](CCCNC(=N)N)NC(C)=O)[C@@H](C)CC)C(=O)N[C@@H](CC(C)C)C(=O)N[C@H](C(=O)N[C@@H](CCCNC(=N)N)C(=O)N1CCC[C@H]1C(=O)N[C@@H](CCCNC(=N)N)C(=O)N[C@@H](Cc1ccc(O)cc1)C(N)=O)[C@@H](C)O (HELM PEPTIDE1{[ac].R.R.Y.I.N.[Nle].L.T.R.P.R.Y.[am]}$$$$V2.0)
- Ki [2]: > 1000 nM
- Ki [3]: > 1000 nM
- Ki [4]: 281 nM
- Emax [1]: 70%
- EC50 [5]: 53 nM
- Ki [6]: 75 nM

Molecule: Ac-RHYINLITRQRY-NH2
- Ki [10]: 7.1 nM
- Ki [11]: 10.2 nM
- IC50 [12]: 132 nM
- Ki [2]: > 1000 nM
- Ki [3]: 1510 nM
- Ki [4]: > 1000 nM
- EC50 [13]: 530 nM
- Ki [6]: > 1000 nM
